Experimental data taken from US20180360953A1 (priority 2015, published 2018).
“Also recorded” adds a separate entry of the source. Like-named read-outs stand apart in the source and are kept apart here.

How the values were obtained:
[1] = tested on: spleen cells; assay type: cell-based, mice
[2] = tested on: spleen cells; assay type: cell-based, mice; conditions: spleen cells 24 hrs; Roflumilast 6.5 μM, Sivelestat 46 μM, Sulfasalazine 100 uM, Aspirin 100 μM
Experimental: In this example, the signaling induced by neutrophil inhibitors were examined to provide insight into mechanisms used to promote immunoglobulin class switching and production of IgG and/or IgA antibodies. In these experiments, the spleen cells of nice mice were cultured 24 hrs without or with neutrophil inhibitor (roflumilast (Phosphodiesterase-4 inhibitor), sivelestat (Neutrophil elastase inhibitor), sulfasalazine (Neutrophil NET inhibitor), or aspirin (COX inhibitor)). Gene expression was analyzed by qRT-PCR for BAFF, AID, TGFb, and IL-10. Mice were divided into 5 groups: (1) Control (Media) (2) Roflumilast (6.5 μM) (3) Sivelestat (46 μM) (4) Sulfasalazine (100 uM) and (5) Aspirin (100 μM).

[3] = tested on: spleen cells; assay type: cell-based, mice; conditions: 100 μM
[4] = tested on: Spleen cells of naïve C57BL/6 mice; assay type: cell-based
[5] = tested on: OVA-specific Ab responses; design: species or system mice; conditions: mouse, in vivo, ip
[6] = tested on: PA-specific Ab responses; design: species or system mice; conditions: mouse, in vivo
[7] = tested on: OVA-specific Ab responses; design: species or system mice; conditions: mouse, in vivo
[8] = tested on: mucosal homing receptors CCR9 and a4b7; design: species or system mice; conditions: mouse, ip
[9] = tested on: spleen cells; assay type: cell-based, mice; conditions: 24 hrs, 48 μM
[10] = tested on: spleen cells; assay type: cell-based, mice; remark: listed apart in the source
[11] = tested on: mucosal homing receptors CCR9 and a4b7; assay type: cell-based; conditions: spleen and mesenteric lymph node cells of naïve mice, 48 hours, Alvelestat 50 or 200 mM
Experimental: Spleen (A) and mesenteric lymph node (B) cells of naïve mice were cultures for 48 hours in the absence or in the presence of the NEI Alvelestat ([…]). The expression of mucosal homing receptors CCR9 and a4b7 by B lymphocytes, and T lymphocytes was analyzed by flow cytometry.

[12] = tested on: mesenteric lymph node cells; assay type: cell-based, mice; conditions: 5-days culture
Experimental: (§1) Single cell suspensions of spleen cells, mesenteric lymph nodes were resuspended (2×10^6 cells/ml) in RPMI 1640 supplemented with L-glutamine, HEPES, penicillin, streptomycin and 10% heat-inactivated fetal calf serum. Cells were cultured for 1, 5, or 6 days at 37° C. and 5% CO2 in the presence of various doses of the neutrophil elastase inhibitor Sivelestat (ONO-5046, C20H22N2O7S) or Alvelestat (AZD9668, C25H22F3N5O4S) (Selleckchem, Houston, Tex.). In selected experiments, neutrophil elastase inhibitors were added to cells cultured in the presence of Salmonella typhimurium LPS (0.05 μg/ml, Sigma, Saint Louis, Mo.).
(§2) […] described by ELISA, using goat anti-murine IgM, IgG, and IgA antibodies (Southern Biotech, Birmingham, Ala.) and extrapolation against standards.

[13] = tested on: spleen cells; assay type: cell-based, mice; conditions: 5 days; for IgG and IgA secreted in culture supernatants of spleen cells / IgM secreted in culture supernatants of spleen cells: increasing doses
Experimental: as §1, §2

[14] = tested on: CD4+ T helper cells; design: species or system mice; conditions: mouse, in vivo
[15] = tested on: Bacillus anthracis lethal toxin (LeTx); assay type: in vivo, mice; conditions: Day 21
[16] = tested on: F1-V-specific Ab responses; design: species or system mice; conditions: mouse, in vivo
[17] = tested on: PA-specific Ab responses; design: species or system mice; conditions: mouse, in vivo; remark: listed apart in the source
[18] = tested on: neutrophils and mast cells; conditions: cited from earlier work

What does the source list for `CC(=O)Oc1ccccc1C(=O)O` [Acetyl-salicylic acid (ASA), acetylsalicylic acid]?
IgG and IgA production (immunofluorescence on cytospins) [1]: enhanced; genes involved in immunoglobulin class switching (BAFF, AID, TGFb, and IL-10) [2]: differentially regulate; IgA secretion by spleen cells (frequency of IgA secreting cells, ELISPOT) [3]: enhanced; Relative stimulation of IgA secretion [4]: ++; Dose effect (Relative stimulation of IgA) ([4]; 10 uM): uM (++); Dose effect (Relative stimulation of IgA) ([4]; 100 uM): uM (++); Dose effect (Relative stimulation of IgA) ([4]; 500 uM): uM (+)

Which “kinetic and magnitude of OVA-specific serum IgG” value [5] does the source give for `Cc1c(-c2ccnn2C)cc(C(=O)NCc2ccc(S(C)(=O)=O)cn2)c(=O)n1-c1cccc(C(F)(F)F)c1` [Alvelestat, alvelestat] here?
The value was “enhances”.

And the “mucosal IgA responses in the gut (OVA-specific, fecal extracts)” value [5]?
Its value is “promotes”.

And the “High affinity PA-specific IgG1 and IgA Ab responses” value [6]?
The value was “high affinity antibodies; also recorded: promotes high affinity Abs”.

What about the “titers of PA-specific IgG1 and IgA responses” value [6] of the same compound?
Its value is “enhanced”.

And the “OVA-specific serum IgE response” value [7]?
The value was “no IgE response was detected”.

What about the “OVA-specific serum IgE responses induced by EdTx” value [7] of the same compound?
Its value is “significantly reduced; also recorded: suppresses”.

What about the “OVA-specific serum IgG1 responses in the absence of EdTx” value [7] of the same compound?
Its value is “increased”.

And the “OVA-specific serum IgG1 responses induced by EdTx” value [7]?
Its value is “increased the magnitude; also recorded: enhances”.

What about the “OVA-specific serum IgG2a/c, or IgG3 in the absence of EdTx” value [7] of the same compound?
Its value is “no evidence that the NEI enhanced”.

And the “OVA-specific serum IgG2b responses induced by EdTx as adjuvant” value [7]?
The value was “significantly increased; also recorded: enhances”.

What about the “antigen-specific IgA in gut (fecal extracts)” value [7] of the same compound?
Its value is “did not stimulate”.

And the “antigen-specific IgA responses in vaginal washes” value [7]?
Its value is “only non-significant levels”.

And the “fecal IgA responses” value [7]?
Its value is “resulted in induction of fecal IgA responses”.

And the “vaginal IgG responses induced by EdTx as adjuvant” value [7]?
The value was “enhance”.

And the “expression of gut homing receptors (CCR9 and a4b7) by B and T cells in vivo” value [8]?
The value was “promotes expression”.

And the “AID mRNA synthesis” value [9]?
The value was “stimulated”.

What about the “frequency of CD4+ T cells” value [10] of the same compound?
The value was “increased”.

What about the “expression of gut homing receptors (CCR9 and a4b7) by B and T cells in vitro” value [11] of the same compound?
Its value is “promotes expression”.

And the “IgG and IgA in culture supernatants of mesenteric lymph node cells” value [12]?
The value was “higher levels”.

What about the “IgA production by spleen cells cultured in the presence of LPS” value ([13]; LPS 0.05 μg/ml) of the same compound?
Its value is “significant increase”.

What about the “IgG and IgA secreted in culture supernatants of spleen cells” value [13] of the same compound?
Its value is “increased”.

And the “IgM secreted in culture supernatants of spleen cells” value [13]?
The value was “reduced”.

What about the “all CD4+ T helper cytokine responses, including Th1, Th2, Th17 and Tfh” value [14] of the same compound?
Its value is “significantly increased”.

What about the “frequencies of IL-4+ CD4+ cells” value [14] of the same compound?
The value was “lower frequencies”.

What about the “frequencies of IL-10+ CD4+ T cells and IL-17+ CD4+ T cells” value [14] of the same compound?
The value was “higher frequencies”.

What about the “frequencies of Th1 cells (IFNγ+ CD4+ T cells and TNFα+ CD4+ T cells)” value [14] of the same compound?
Its value is “same frequencies”.

What about the “frequencies of Th2 cells producing IL-5” value [14] of the same compound?
Its value is “similar”.

What about the “frequencies of antigen-specific IL-21+ CD4 T cells” value [14] of the same compound?
The value was “same frequencies”.

What about the “serum anti-PA neutralizing antibody titers” value ([15]; sublingual EdTx and NEI, listed as NEI) of the same compound?
The value was “significantly increased; also recorded: enhanced neutralizing activity”.

And the “serum anti-PA neutralizing antibodies” value ([15]; sublingual antigen plus NEI)?
The value was “low and comparable levels”.

Which results are given for `O=C(Nc1c(Cl)cncc1Cl)c1ccc(OC(F)F)c(OCC2CC2)c1` [Roflumilast]?
genes involved in immunoglobulin class switching (BAFF, AID, TGFb, and IL-10) [2]: differentially regulate; Relative stimulation of IgA secretion [4]: +; Dose effect (Relative stimulation of IgA) ([4]; 0.062 uM): uM (−); Dose effect (Relative stimulation of IgA) ([4]; 0.62 uM): uM (−); Dose effect (Relative stimulation of IgA) ([4]; 6.2 uM): uM (+)

What does the source list for `CC(C)(C)C(=O)Oc1ccc(S(=O)(=O)Nc2ccccc2C(=O)NCC(=O)O)cc1` [Sivelestat, sivelestat]?
IgA responses by a sublingual vaccine [16]: promotes; AID mRNA synthesis [9]: stimulated; IgG and IgA production (immunofluorescence on cytospins) [1]: larger increases; secretion of IgG and IgA by splenocytes cultured in the presence of LPS ([13]; LPS 0.05 μg/ml): increased; IgG and IgA secreted in culture supernatants of spleen cells [13]: dose-dependent increase; IgM secreted in culture supernatants of spleen cells [13]: reduced; PA-specific salivary IgA response [17]: enhances; PA-specific serum IgA response [17]: enhances; PA-specific serum IgG1 response [17]: enhances; PA-specific serum IgG2c response [17]: did not affect; genes involved in immunoglobulin class switching (BAFF, AID, TGFb, and IL-10) [2]: differentially regulate; IgA secretion by spleen cells (frequency of IgA secreting cells, ELISPOT) [3]: enhanced; Relative stimulation of IgA secretion [4]: ++; Dose effect (Relative stimulation of IgA) ([4]; 4.6 uM): uM (+); Dose effect (Relative stimulation of IgA) ([4]; 46 uM): uM (++); Dose effect (Relative stimulation of IgA) ([4]; 230 uM): uM (++)

With `O=C(O)c1cc(/N=N/c2ccc(S(=O)(=O)Nc3ccccn3)cc2)ccc1O` [Sulfasalazine, sulfasalazine] as the compound, how does the “ET formation in neutrophils and mast cells” value [18] read?
The value was “significantly inhibit”.

And the “genes involved in immunoglobulin class switching (BAFF, AID, TGFb, and IL-10)” value [2]?
The value was “differentially regulate”.

And the “IgA secretion by spleen cells (frequency of IgA secreting cells, ELISPOT)” value [3]?
The value was “enhanced”.

What about the “Relative stimulation of IgA secretion” value [4] of the same compound?
Its value is “+++”.

And the “Dose effect (Relative stimulation of IgA)” value ([4]; 10 uM)?
Its value is “uM (++)”.

And the “Dose effect (Relative stimulation of IgA)” value ([4]; 100 uM)?
The value was “uM (+++)”.

What about the “Dose effect (Relative stimulation of IgA)” value ([4]; 1000 uM) of the same compound?
The value was “uM (+)”.

With `O=C1CCC(N2C(=O)c3ccccc3C2=O)C(=O)N1` (stereo not drawn) [thalidomide] as the compound, how does the “ET formation in neutrophils and mast cells” value [18] read?
The value was “significantly inhibit”.
